According to patent US7563791B2, “Pyrrolotriazine derivatives useful for treating hyper-proliferative disorders and diseases associated with angiogenesis” (Bayer Pharmaceuticals Corporation, priority 2004, dated 2009):
pIC50: −log10 of the molar value.

What was measured:
Format in all cases: cell-based
[1] = tested on: histone 3 phosphorylation in colon carcinoma (HCT116); assay: p-Histone3 assay: inhibition of histone 3 phosphorylation in HCT116; settings: Homo sapiens, HCT-116, 24 h, HCT116, 24 hours compound treatment; for IC50: bound given in μM
Method: Compounds were assayed for the inhibition of histone 3 phosphorylation in colon carcinoma (HCT116). Briefly, 20,000 cells/well were seeded in a 96-well black-walled, poly-d-lysine plates in RPMI+10% FBS and incubated at 37° C. in 5% CO2 overnight. The following day, the cells were treated with compounds for 24 hours at 37° C. Following compound treatment; plates were centrifuged at 1000 rpm for 2 minutes and washed twice with 100 μl of cold sterile TBS. Cells were then fixed with cold 3.7% formaldehyde in TBS (4° C. for 1 hour) and then permeabolized with 0.1% Triton-X-100 in TBS (room temperature for 30 minutes). Plates were then washed with of 0.25% BSA-TBS and blocked with BSA solution for 1 hour at room temperature while shaking. The supernatant was removed and replaced with diluted primary antibody (anti-phospho-histone 3, serine 10, Cell Signaling) at 1:250 in 0.25% BSA-TBS and incubated overnight at 4° C. The plates were washed and treated with diluted secondary antibody (anti-rabbit Eu-labeled) at 1:10000 in 0.25% BSA-TBS (room temperature for 1 hour). The antibody solution was removed from each well and washed eight times. The wash buffer was replaced with 50 μl pre-warmed enhancement solution and mixed on the orbital shaker for 10 minutes. Fluorescence was detected with a Victor V Fluorescence Detector. The data are expressed as percent inhibition: % inhibition=100−((Signal with inhibitor-background)/(Signal without inhibitor-background))×100.

MDA-MB-231 cells = assay: Tumor cell proliferation (Alamar Blue), MDA-MB-231; settings: Homo sapiens, MDA-MB-231, 72 h; for IC50: bounds given in μM
Procedure, shortened: (§1)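 Cells seeded at 3.0×10^3/well in RPMI with 10% FBS for 16 h, then treated with compound (added medium held 40 μM to 18 nM compound, 0.4% DMSO) for 72 h at 37 °C, 5% CO2. Viability by Alamar Blue, 3 h, fluorescence 544/590 nm. IC50 by linear regression of log concentration versus percent inhibition.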

[2] = tested on: VEGFR stimulated HUVEC proliferation; assay: BRDU growth factor stimulated proliferation of HUVEC (VEGF stimulation); settings: Homo sapiens, 72 h, 80 ng/ml VEGF, 3 days, BrdU incorporation
Method: (§2) BRDU Growth Factor Stimulated Proliferation of HUVEC
(§3) Exponentially growing human umbilical vein endothelial cells (HUVEC; Cat# CC-2519A, Cambrex, Walkersville, Md.) were seeded at two thousand cells/well into Collagen IV-coated 96 well plates (Cat#35-4429, Becton Dickinson, Bedford, Mass.) in assay media containing RPMI-1640 (Cat#11875-093, Gibco, Carlsbad, Calif.), 0.5% charcoal-stripped serum (Cat# SH30068.03, HyClone, Logan, Utah), and 1% N-2 supplement (Cat#17502-048, Gibco, Carlsbad, Calif.). Fours hours after incubating the plates at 37° C. in 5% CO2, the cells were treated with different concentrations of compound (diluted in assay media with a final DMSO concentration=0.1%) and then were immediately stimulated with 80 ng/ml of vascular endothelial growth factor (VEGF, Cat#100-20, PeproTech, Rocky Hill, N.J.) or 1.5 ng/ml of basic fibroblast growth factor (bFGF, Catt#100-18B, PeproTech, Rocky Hill, N.J.). Treated cells were incubated for 3 days at 37° C. in 5% CO2. DNA synthesis was measured via the incorporation of bromodeoxyuridine (BrdU) into newly synthesized DNA using the Amersham Cell Proliferation BioTrack ELISA system (Cat# RPN250, Amersham, Piscataway, N.J.). Diluted BrdU solution (20 μl of stock BrdU diluted 1:20 fold into assay media) was added to each well and incubation proceeded for 6 hours at 37° C. in 5% CO2. The media was removed and the cells were fixed according to the specifications of the Amersham assay kit for 30 minutes at room temperature. After removing the fixative, blocking buffer (supplied by Amersham kit; 200 μl/well) was added and the plates were stored at 4° C. overnight. The blocking buffer was aspirated and peroxidase-labeled anti-BrdU antibody (supplied by Amersham kit; 100 μl/well) was added and incubated for 3 hours at room temperature. The plates were washed three times with wash buffer (supplied by Amersham kit; 300 μl/well/wash). Immediately following the washes, 100 μl of the TMB-substrate was dispensed into each well and the plates were further incubated for 30 minutes at room temperature. The reaction was terminated by the addition of 25 μl of 1M H2SO4. Plates were read immediately at 450 nm using a SpectraMAX 250 spectrophotometer plate reader (Molecular Devices, Sunnyvale, Calif.). The software utilized was SoftMAX pro v.2.4.1.

HCT116 cells = assay: Tumor cell proliferation (Alamar Blue), HCT116; settings: Homo sapiens, HCT-116, 72 h; for IC50: bounds given in μM
Procedure, shortened: as §1

[3] = tested on: VEGF stimulated Phospho-ERK in HUVEC; assay: Growth factor stimulated p-ERK assay in HUVECs (VEGF stimulation, ERK1/2 Bioplex); settings: Homo sapiens, compound 2 hrs, then 50 ng/ml VEGF 10 min; for inhibition at 0.1 µM: @ 100 nM
Procedure, shortened: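 HUVECs in serum-free RPMI 1640/0.1% BSA pretreated with compound 2 hrs, then stimulated 10 min with 50 ng/ml VEGF (or bFGF). Lysate phospho-ERK1/2 quantified by bead-based Bio-Plex immunoassay on Luminex.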

[4] = tested on: FGFR stimulated HUVEC proliferation; assay: BRDU growth factor stimulated proliferation of HUVEC (bFGF stimulation); settings: Homo sapiens, 72 h, 1.5 ng/ml bFGF, 3 days, BrdU incorporation
Method: as §2, §3

Row | SMILES | pIC50 [1] | pIC50 [2] | pIC50 [4] | further results
1 | COCCNC(=O)c1cn2ncnc(N)c2c1-c1ccc(NC(=O)Nc2cc(C(F)(F)F)ccc2F)cc1 [Example 167, 4-amino-5-{4-[({[2-fluoro-5-(trifluoromethyl)phenyl]amino}carbonyl)amino]phenyl}-N-(2-methoxyethyl)pyrrolo[2,1-f][1,2,4]triazine-6-carboxamide] | < 6.30 | – | – | IC50 [1]: < 1 µM
2 | CSCCCNC(=O)c1cn2ncnc(N)c2c1-c1ccc(NC(=O)Nc2cccc(C(F)(F)F)n2)cc1 [Example 204, 4-amino-N-[3-(methylthio)propyl]-5-{4-[({[6-(trifluoromethyl)pyridin-2-yl]amino}carbonyl)amino]phenyl}pyrrolo[2,1-f][1,2,4]triazine-6-carboxamide] | < 6.30 | – | – | IC50 [1]: < 1 µM
3 | Nc1ncnn2cc(C(=O)NCC(F)(F)F)c(-c3ccc(NC(=O)Nc4ccc(F)c(C(F)(F)F)c4)cc3)c12 [Example 88, 4-amino-5-{4-[({[4-fluoro-3-(trifluoromethyl)phenyl]amino}carbonyl)amino]phenyl}-N-(2,2,2-trifluoroethyl)pyrrolo[2,1-f][1,2,4]triazine-6-carboxamide] | > 6.30 | – | – | –
4 | CC(C)(C)NC(=O)c1cn2ncnc(N)c2c1-c1ccc(NC(=O)Nc2cccc(C(F)(F)F)n2)cc1 [Example 164, 4-amino-N-(tert-butyl)-5-{4-[({[6-(trifluoromethyl)pyridin-2-yl]amino}carbonyl)amino]phenyl}pyrrolo[2,1-f][1,2,4]triazine-6-carboxamide] | > 6.30 | – | – | –
5 | N#Cc1cn2ncnc(N)c2c1-c1ccc(NC(=O)Nc2cc(C(F)(F)F)ccc2F)cc1 [Example 99, N-[4-(4-amino-6-cyanopyrrolo[2,1-f][1,2,4]triazin-5-yl)phenyl]-N′-[2-fluoro-5-(trifluoromethyl)phenyl]urea] | – | 6.30 to 7.00 | > 7.00 | pIC50 (MDA-MB-231 cells): < 6.30; IC50 (MDA-MB-231 cells): < 1.5 µM; IC50 (HCT116 cells): 1.5 to 5 µM; inhibition at 0.1 µM [3]: < 50%; inhibition at 1 µM ([3]; @ 1 μM): > 50%
6 | Nc1ncnn2cc(-c3cnco3)c(-c3ccc(NC(=O)Nc4cc(C(F)(F)F)ccc4F)cc3)c12 [Example 155, N-{4-[4-amino-6-(1,3-oxazol-5-yl)pyrrolo[2,1-f][1,2,4]triazin-5-yl]phenyl}-N′-[2-fluoro-5-(trifluoromethyl)phenyl]urea] | – | 7.00 to 8.00 | 6.30 to 7.00 | pIC50 (MDA-MB-231 cells): > 6.30; pIC50 (HCT116 cells): > 6.30
7 | Nc1ncnn2cc(C(=O)NCC(F)(F)F)c(-c3ccc(NC(=O)Nc4cc(C(F)(F)F)ccc4F)cc3)c12 [Example 70, 4-amino-5-{4-[({[2-fluoro-5-(trifluoromethyl)phenyl]amino}carbonyl)amino]phenyl}-N-(2,2,2-trifluoroethyl)pyrrolo[2,1-f][1,2,4]triazine-6-carboxamide] | – | > 8.00 | > 7.00 | pIC50 (MDA-MB-231 cells): > 6.30; pIC50 (HCT116 cells): > 6.30; inhibition at 0.1 µM [3]: > 50%
8 | COCc1cn2ncnc(N)c2c1-c1ccc(NC(=O)Nc2cc(F)cc(C(F)(F)F)c2)cc1 [Example 102, N-{4-[4-amino-6-(methoxymethyl)pyrrolo[2,1-f][1,2,4]triazin-5-yl]phenyl}-N′-[3-fluoro-5-(trifluoromethyl)phenyl]urea] | – | 6.30 to 7.00 | 6.30 to 7.00 | IC50 (MDA-MB-231 cells): 5 to 10 µM; IC50 (HCT116 cells): 1.5 to 5 µM
9 | CCOCc1cn2ncnc(N)c2c1-c1ccc(NC(=O)Nc2cc(C(F)(F)F)ccn2)cc1 [Example 218, N-{4-[4-amino-6-(ethoxymethyl)pyrrolo[2,1-f][1,2,4]triazin-5-yl]phenyl}-N′-[4-(trifluoromethyl)pyridine-2-yl]urea] | – | > 8.00 | 6.30 to 7.00 | IC50 (MDA-MB-231 cells): 5 to 10 µM; IC50 (HCT116 cells): 5 to 10 µM
10 | N#Cc1cn2ncnc(N)c2c1-c1ccc(NC(=O)Nc2cc(F)cc(C(F)(F)F)c2)cc1 [Example 103, N-[4-(4-amino-6-cyanopyrrolo[2,1-f][1,2,4]triazin-5-yl)phenyl]-N′-[3-fluoro-5-(trifluoromethyl)phenyl]urea] | – | 7.00 to 8.00 | > 7.00 | IC50 (MDA-MB-231 cells): 5 to 10 µM; IC50 (HCT116 cells): 5 to 10 µM

Further lines, with some results ahead:

Row | pIC50 [1] | SMILES | pIC50 [2] | pIC50 [4] | further results
11 | > 6.30 | Nc1ncnn2cc(C(=O)NC3CC3)c(-c3ccc(NC(=O)Nc4cccc(C(F)(F)F)n4)cc3)c12 [Example 177, 4-amino-N-cyclopropyl-5-{4-[({[6-(trifluoromethyl)pyridin-2-yl]amino}carbonyl)amino]phenyl}pyrrolo[2,1-f][1,2,4]triazine-6-carboxamide] | – | – | –
12 | > 6.30 | CCOC(=O)c1cn2ncnc(N)c2c1-c1ccc(NC(=O)Nc2cccc(Oc3ccccc3)c2)cc1 [Example 171, ethyl 4-amino-5-[4-({[(3-phenoxyphenyl)amino]carbonyl}amino)phenyl]pyrrolo[2,1-f][1,2,4]triazine-6-carboxylate] | – | – | –
13 | > 6.30 | CCNC(=O)c1cn2ncnc(N)c2c1-c1ccc(NC(=O)Nc2cccc(C(F)(F)F)n2)cc1 [Example 176, 4-amino-N-ethyl-5-{4-[({[6-(trifluoromethyl)pyridin-2-yl]amino}carbonyl)amino]phenyl}pyrrolo[2,1-f][1,2,4]triazine-6-carboxamide] | – | – | –
14 | > 6.30 | Nc1ncnn2cc(C(=O)NCC(F)(F)F)c(-c3ccc(NC(=O)Nc4cccc(CC(F)(F)F)c4)cc3)c12 [Example 92, 4-amino-N-(2,2,2-trifluoroethyl)-5-{4-[({[3-(2,2,2-trifluoroethyl)phenyl]amino}carbonyl)amino]phenyl}pyrrolo[2,1-f][1,2,4]triazine-6-carboxamide] | – | – | –
15 | < 6.30 | CCOC(=O)c1cn2ncnc(N)c2c1-c1ccc(NC(=O)Nc2ccc3c(c2)OCO3)cc1 [Example 13, ethyl 4-amino-5-(4-{[(1,3-benzodioxol-5-ylamino)carbonyl]amino}phenyl)pyrrolo[2,1-f][1,2,4]triazine-6-carboxylate] | – | – | IC50 [1]: < 1 µM
16 | < 6.30 | CCOC(=O)c1cn2ncnc(N)c2c1-c1ccc(NC(=O)Nc2ccccc2C(F)(F)F)cc1 [Example 7, ethyl 4-amino-5-{4-[({[2-(trifluoromethyl)phenyl]amino}carbonyl)amino]phenyl}pyrrolo[2,1-f][1,2,4]triazine-6-carboxylate] | – | – | IC50 [1]: < 1 µM
17 | > 6.30 | CC(C)(C)CNC(=O)c1cn2ncnc(N)c2c1-c1ccc(NC(=O)Nc2cccc(C(F)(F)F)n2)cc1 [Example 165, 4-amino-N-(2,2-dimethylpropyl)-5-{4-[({[6-(trifluoromethyl)pyridin-2-yl]amino}carbonyl)amino]phenyl}pyrrolo[2,1-f][1,2,4]triazine-6-carboxamide] | – | – | –
